Data from patent US10357036B2, “Compounds for controlling arthropods” (priority 2015, dated 2019).
Read-outs that look alike come from different tables or passages of the source.

Experiments:
Meloidogyne incognita = Meloidogyne incognita test; assay type: in vivo; details: 20 ppm; after 14 days
Procedure: • Solvent: 125.0 parts by weight of acetone
To produce a suitable active compound preparation, 1 part by weight of active compound is mixed with the stated amount of solvent and the concentrate is diluted to the desired concentration with water.
Vessels are filled with sand, active compound solution, an egg/larvae suspension of the southern root-knot nematode (Meloidogyne incognita) and lettuce seeds. The lettuce seeds germinate and the plants develop. The galls develop on the roots.
After 14 days, the nematicidal efficacy in % is determined by the formation of galls. 100% means that no galls were found; 0% means that the number of galls on the treated plants corresponds to the untreated control.

Tetranychus urticae = Tetranychus urticae spray test, OP-resistant (bean leaf discs); assay type: in vivo; details: 100 g/ha; after 6 days
Procedure: (§1) After 6 days, the efficacy in % is determined.

Spodoptera frugiperda = Spodoptera frugiperda spray test; assay type: in vivo; details: 100 g/ha, after 7 days; for pest or weed control at 100 g/ha: Spodoptera frugiperda, 168 h, read-out: efficacy
Ctenocephalides felis [1] = assay: Ctenocephalides felis oral test; assay type: in vivo; details: 100 ppm in citrated cattle blood; after 2 days
Musca domestica = Musca domestica test; assay type: in vivo; details: 100 ppm; adult houseflies; after 2 days
Procedure: (§2) • Solvent: dimethyl sulfoxide
To produce a suitable active ingredient formulation, 10 mg of active ingredient are mixed with 0.5 ml of dimethyl sulfoxide, and the concentrate is diluted with water to the desired concentration.
Vessels containing a sponge treated with sugar solution and the active ingredient formulation of the desired concentration are populated with 10 adult houseflies (Musca domestica).

Rhipicephalus sanguineus = Rhipicephalus sanguineus in vitro contact test with adult brown dog ticks; assay type: in vivo; details: application rate 5 μg/cm^2 (=500 g/ha); after 48 h; dead or moribund ticks
In short: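 Efficacy, as % of ticks dead or moribund, was judged 48 h after placing 5-10 adult brown dog ticks in acetone-coated tubes (5 μg/cm^2 from 900 ppm) kept dark at room temperature. Ticks unable to climb away from a 45-50° C hotplate within 5 min counted as affected.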

Ctenocephalides felis [2] = assay: Ctenocephalides felis in vitro contact test with adult cat fleas; assay type: in vivo; details: application rate 5 μg/cm^2 (=500 g/ha); after 48 h; dead or moribund fleas
In short: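 After 48 h at room temperature and ambient humidity, adult cat fleas (5–10 per tube) were scored, with motionless or uncoordinated fleas counted dead or moribund. Tubes had been coated with acetone solutions of compound, the 900 ppm solution giving 5 μg/cm². Efficacy: 100% means all fleas dead or moribund, 0% none harmed.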

Boophilus microplus = Boophilus microplus injection test; assay type: in vivo; details: 20 μg/animal; assessed after 7 days
Procedure: as §2
1 μl of the active ingredient solution is injected into the abdomen of 5 engorged adult female cattle ticks (Boophilus microplus). The animals are transferred into dishes and kept in a climate-controlled room.

[3] = test system: cattle ticks (Boophilus microplus) Parkhurst strain, SP-resistant; assay: Boophilus microplus dip test; assay type: in vivo; details: 100 ppm; assessed after 7 days
Procedure: • Test animals: cattle ticks (Boophilus microplus) Parkhurst strain, SP-resistant • Solvent: dimethyl sulfoxide
10 mg of active ingredient are dissolved in 0.5 ml of dimethyl sulfoxide. To produce a suitable formulation, the active ingredient solution is diluted with water to the concentration desired in each case.
This active ingredient formulation is pipetted into tubes. 8-10 engorged adult female cattle ticks (Boophilus microplus) are transferred into a further tube with holes. The tube is immersed into the active ingredient formulation, and all the ticks are completely wetted. After the liquid has run out, the ticks are transferred on filter discs into plastic dishes and stored in a climate-controlled room.
Efficacy is assessed after 7 days by laying of fertile eggs. Eggs which are not visibly fertile are stored in a climate-controlled cabinet until the larvae hatch after about 42 days. An efficacy of 100% means that none of the ticks has laid any fertile eggs; 0% means that all the eggs are fertile.

Myzus persicae = Myzus persicae spray test (Chinese cabbage leaf discs); assay type: in vivo; details: 100 g/ha; after 6 days
Procedure: as §1

Phaedon cochleariae = Phaedon cochleariae spray test; details: for efficacy: 100 g/ha, after 7 days; for pest or weed control at 100 g/ha: Phaedon cochleariae, 168 h, read-out: efficacy
[4] = reversed-phase C18 HPLC column, logP, HPLC, C18, acetonitrile/water with formic acid (note a)
[5] = reversed-phase C18 HPLC column, logP^a, HPLC-MS method a)

SMILES	nematicidal efficacy (formation of galls) (Meloidogyne incognita) [%]	efficacy (Tetranychus urticae) [%]	chromatographic logP [4]	chromatographic logP [5]	pest or weed control at 100 g/ha (Spodoptera frugiperda) [%]	efficacy (rate of extermination) (Ctenocephalides felis [1]) [%]	efficacy (rate of extermination) (Musca domestica) [%]	efficacy (Rhipicephalus sanguineus) [%]	efficacy (Ctenocephalides felis [2]) [%]	efficacy (laying of fertile eggs) (Boophilus microplus) [%]	efficacy (Spodoptera frugiperda) [%]	efficacy (laying of fertile eggs) [3] [%]	efficacy (Myzus persicae) [%]	efficacy (Phaedon cochleariae) [%]	pest or weed control at 100 g/ha (Phaedon cochleariae) [%]	chromatographic logP (reversed-phase C18 HPLC column, logP^a, HPLC-MS method a), reversed-phase column (C18))
CC(=O)N(C)Cc1cc(-c2cnn(-c3c(Cl)cc(C4(C(F)(F)F)CC4)cc3Cl)c2)ccc1F [Ia-125]	100	–	–	–	–	–	–	–	–	–	–	–	–	–	–	–
CCC(=O)NCc1cc(-c2cnn(-c3c(Cl)cc(C(F)(C(F)(F)F)C(F)(F)F)cc3S(C)(=O)=O)c2)ccc1F [Ia-46, N-(5-{1-[2-chloro-4-(1,1,1,2,3,3,3-heptafluoropropan-2-yl)-6-(methylsulfonyl)phenyl]-1H-pyrazol-4-yl}-2-fluorobenzyl)propanamide]	–	70	3.65	3.65	–	–	–	–	–	–	–	–	–	–	–	–
O=C(NCc1cc(-c2cnn(-c3c(Cl)cc(C(F)(C(F)(F)F)C(F)(F)F)cc3Cl)c2)ccc1Cl)C1CC1 [Ia-25, N-(2-chloro-5-{1-[2,6-dichloro-4-(1,1,1,2,3,3,3-heptafluoropropan-2-yl)phenyl]-1H-pyrazol-4-yl}benzyl)cyclopropanecarboxamide]	–	–	4.8	4.8	100	100	100	80	100	100	–	–	–	–	–	–
CC(=O)NCc1cc(-c2cnn(-c3c(Cl)cc(C(F)(C(F)(F)F)C(F)(F)F)cc3Cl)c2)ccc1C [Ia-90]	–	100	–	–	–	100	100	100	100	100	100	100	90	100	–	–
CC(=O)NCc1c(F)ccc(-c2cnn(-c3c(Cl)cc(C(F)(C(F)(F)F)C(F)(F)F)cc3C(F)F)c2)c1F [Ia-142]	–	100	–	–	–	100	100	80	100	100	100	80	90	100	–	–
CCS(=O)(=O)N(C)Cc1cc(-c2cnn(-c3c(Cl)cc(C(F)(C(F)(F)F)C(F)(F)F)cc3Cl)c2)ccc1Cl [Ic-03, N-(2-chloro-5-{1-[2,6-dichloro-4-(1,1,1,2,3,3,3-heptafluoropropan-2-yl)phenyl]-1H-pyrazol-4-yl}benzyl)-N-methylethanesulfonamide]	–	–	5.21	–	100	–	–	–	–	–	–	–	–	–	100	–
CCC(=O)NCc1cc(-c2cnn(-c3c(C)cc(C(F)(C(F)(F)F)C(F)(F)F)cc3Cl)c2)ccc1F [Ia-66]	–	100	–	–	–	100	100	100	100	100	100	95	70	100	–	–
CCC(=O)NCc1cc(-c2cnn(-c3c(Cl)cc(C(F)(C(F)(F)F)C(F)(F)F)cc3SC)c2)ccc1F [Ia-10, N-(5-{1-[2-chloro-4-(1,1,1,2,3,3,3-heptafluoropropan-2-yl)-6-(methylsulfanyl)phenyl]-1H-pyrazol-4-yl}-2-fluorobenzyl)propanamide]	–	100	4.29	4.29	100	100	100	100	100	100	–	–	–	–	100	–
CC(=O)NCc1cc(-c2cn(-c3c(Cl)cc(C(F)(C(F)(F)F)C(F)(F)F)cc3Cl)nn2)ccc1Cl [I-T7-01, N-(2-chloro-5-{1-[2,6-dichloro-4-(1,1,1,2,3,3,3-heptafluoropropan-2-yl)phenyl]-1H-1,2,3-triazol-4-yl}benzyl)acetamide]	–	90	3.94	–	100	–	–	–	–	–	–	–	–	–	100	–
CCC(=O)NC1CCc2ccc(-c3cnn(-c4c(Cl)cc(C(F)(C(F)(F)F)C(F)(F)F)cc4OC(F)(F)F)c3)cc21 (stereo not drawn) [I-Tc-01, N-(6-{1-[2-chloro-4-(1,1,1,2,3,3,3-heptafluoropropan-2-yl)-6-(trifluoromethoxy)phenyl]-1H-pyrazol-4-yl}-2,3-dihydro-1H-inden-1-yl)propanamide]	–	–	4.84	–	100	100	–	100	–	100	–	–	–	–	–	–
CC(=O)NCc1cc(-c2cnn(-c3c(C)cc(C(F)(C(F)(F)F)C(F)(F)F)cc3Cl)c2)ccc1F [Ia-65]	–	100	–	–	–	100	100	100	100	100	100	100	90	100	–	–
N#CCC(=O)NCc1cc(-c2cnn(-c3c(Cl)cc(C(F)(C(F)(F)F)C(F)(F)F)cc3Br)c2)ccc1Cl [Ia-137, N-(5-{1-[2-bromo-6-chloro-4-(1,1,1,2,3,3,3-heptafluoropropan-2-yl)phenyl]-1H-pyrazol-4-yl}-2-chlorobenzyl)-2-cyanoacetamide]	–	100	4.28	–	100	100	100	–	100	100	–	–	–	–	100	4.33
CCS(=O)(=O)NCc1cc(-c2cnn(-c3c(Cl)cc(C(F)(C(F)(F)F)C(F)(F)F)cc3Cl)c2)ccc1Cl [Ic-02, N-(2-chloro-5-{1-[2,6-dichloro-4-(1,1,1,2,3,3,3-heptafluoropropan-2-yl)phenyl]-1H-pyrazol-4-yl}benzyl)ethanesulfonamide]	–	–	4.65	–	100	–	–	–	–	–	–	–	–	–	100	–
CC(=O)NCc1cc(-c2cnn(-c3c(Cl)cc(C(F)(C(F)(F)F)C(F)(F)F)cc3C(F)(F)F)c2)ccc1C [Ia-79]	–	100	–	–	–	100	100	100	100	100	100	100	90	–	–	–
CCC(=O)NCc1cc(-c2cnn(-c3c(Cl)cc(C(F)(C(F)(F)F)C(F)(F)F)cc3C(F)F)c2)ccc1F [Ia-23]	–	100	–	–	–	100	100	100	100	100	100	100	90	100	–	–
CCC(=O)NCc1cc(-c2cnn(-c3c(Cl)cc(C(F)(C(F)(F)F)C(F)(F)F)cc3[S+](C)[O-])c2)ccc1F (stereo not drawn) [Ia-45, N-(5-{1-[2-chloro-4-(1,1,1,2,3,3,3-heptafluoropropan-2-yl)-6-(methylsulfinyl)phenyl]-1H-pyrazol-4-yl}-2-fluorobenzyl)propanamide]	–	–	3.52	3.52	–	–	–	–	–	–	–	–	–	–	100	–
